Data reported in ChEMBL document CHEMBL1201862, “PubChem BioAssay data set” (2004).
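Results reflect a 48-hour exposure of cells in 96-well plates to compound at five concentrations. At the GI50, growth is halved.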 Calls of active or inactive are those of the source. No stated cut-off is given here; in the data, active = GI50 up to about 1.1 µM and inactive = higher.

Tests used:
Experiment in all cases: growth of human tumour cells (NCI), 48 h
CAKI-1 = tested on: CAKI-1
UO-31 = tested on: UO-31
SF-268 = tested on: SF-268
OVCAR-8 = tested on: OVCAR-8
NCI-H460 = tested on: NCI-H460
OVCAR-3 = tested on: OVCAR-3
SK-MEL-5 = tested on: SK-MEL-5
UACC-62 = tested on: UACC-62
OVCAR-5 = tested on: OVCAR-5
EKVX = tested on: EKVX
SR = tested on: SR
HCT-15 = tested on: HCT-15
KM12 = tested on: KM12
HCT-116 = tested on: HCT-116
COLO 205 = tested on: COLO 205
SK-OV-3 = tested on: SK-OV-3
TK-10 = tested on: TK-10
UACC-257 = tested on: UACC-257
IGROV-1 = tested on: IGROV-1
786-0 = tested on: 786-0

Row | SMILES | GI50 (CAKI-1) | GI50 (UO-31) | GI50 (SF-268) | GI50 (OVCAR-8) | GI50 (NCI-H460) | GI50 (OVCAR-3) | GI50 (SK-MEL-5) | GI50 (UACC-62) | GI50 (OVCAR-5) | GI50 (EKVX) | GI50 (SR) | GI50 (HCT-15) [µM] | GI50 (KM12) | GI50 (HCT-116) | GI50 (COLO 205) | GI50 (SK-OV-3) | GI50 (TK-10) | GI50 (UACC-257) | GI50 (IGROV-1) | GI50 (786-0)
1 | CC(=O)c1nccc2c1c(C)nc1ccccc12 | 30.3 µM (inactive) | 55.7 µM (inactive) | 64.3 µM (inactive) | 72.6 µM (inactive) | 32.8 µM (inactive) | > 100 µM (inactive) | 60.8 µM (inactive) | 53.7 µM (inactive) | > 100 µM (inactive) | 52.2 µM (inactive) | 26.4 µM (inactive) | 58.9 | 38.7 µM (inactive) | 64.3 µM (inactive) | > 100 µM (inactive) | > 100 µM (inactive) | > 100 µM (inactive) | > 100 µM (inactive) | 70 µM (inactive) | –
2 | CSC1=Nc2ccccc2N(C)c2c1c(-c1ccccc1)nn2C | > 100 µM (inactive) | – | 17 µM (inactive) | 32.7 µM (inactive) | 21.9 µM (inactive) | 15.2 µM (inactive) | 17.8 µM (inactive) | 35.2 µM (inactive) | > 100 µM (inactive) | 65.5 µM (inactive) | 16.1 µM (inactive) | 56.9 | 21.8 µM (inactive) | 22.1 µM (inactive) | 38 µM (inactive) | 37.3 µM (inactive) | 66.8 µM (inactive) | 73.1 µM (inactive) | 42.9 µM (inactive) | –
3 | CC(NC(=O)c1ccc(OP(=O)(OCC2=CC(=O)c3ccccc3C2=O)N(C)CCCCCl)cc1)c1ccc(OCC2CCCCC2)c(C(N)=O)c1 (configuration not stated) | 9.44 µM (inactive) | 10.2 µM (inactive) | 13.4 µM (inactive) | 13.4 µM (inactive) | 11 µM (inactive) | 1.41 µM (inactive) | 0.328 µM (active) | 9.64 µM (inactive) | 21.4 µM (inactive) | – | 12.6 µM (inactive) | 12.2 | 12 µM (inactive) | 14.3 µM (inactive) | 7.28 µM (inactive) | 15.4 µM (inactive) | 25.1 µM (inactive) | 4.59 µM (inactive) | 9.66 µM (inactive) | 14.6 µM (inactive)
4 | CNNC(=NS(=O)(=O)c1cc(C#N)c(NNC)cc1S)NNC | > 10 µM (inactive) | > 10 µM (inactive) | > 10 µM (inactive) | > 10 µM (inactive) | > 10 µM (inactive) | > 10 µM (inactive) | > 10 µM (inactive) | – | > 10 µM (inactive) | > 10 µM (inactive) | > 10 µM (inactive) | > 10 | > 10 µM (inactive) | > 10 µM (inactive) | > 10 µM (inactive) | > 10 µM (inactive) | > 10 µM (inactive) | > 10 µM (inactive) | > 10 µM (inactive) | > 10 µM (inactive)
5 | Cc1ccc(NC(=O)/C(=N\Nc2ccc([N+](=O)[O-])cc2[N+](=O)[O-])C2C(=O)NC(=O)NC2=O)cc1 | > 100 µM (inactive) | 15.5 µM (inactive) | 32 µM (inactive) | 55.7 µM (inactive) | 71 µM (inactive) | > 100 µM (inactive) | 33.2 µM (inactive) | 7.13 µM (inactive) | > 100 µM (inactive) | – | > 100 µM (inactive) | 6.31 | 53.2 µM (inactive) | 62.4 µM (inactive) | > 100 µM (inactive) | > 100 µM (inactive) | > 100 µM (inactive) | > 100 µM (inactive) | 43.2 µM (inactive) | > 100 µM (inactive)
6 | O=C(c1cccs1)N(C(=S)N1CCN(c2ccccc2)CC1)c1ccccc1 | > 100 µM (inactive) | > 100 µM (inactive) | > 100 µM (inactive) | > 100 µM (inactive) | > 100 µM (inactive) | > 100 µM (inactive) | > 100 µM (inactive) | > 100 µM (inactive) | > 100 µM (inactive) | – | > 100 µM (inactive) | > 100 | > 100 µM (inactive) | > 100 µM (inactive) | > 100 µM (inactive) | > 100 µM (inactive) | > 100 µM (inactive) | > 100 µM (inactive) | > 100 µM (inactive) | > 100 µM (inactive)
7 | CC1=Nc2ccccc2C12C(c1ccccc1)C(c1ccccc1)C(=O)N1c3ccccc3CC12 (configuration not stated) | > 100 µM (inactive) | > 100 µM (inactive) | – | > 100 µM (inactive) | > 100 µM (inactive) | > 100 µM (inactive) | > 100 µM (inactive) | > 100 µM (inactive) | > 100 µM (inactive) | > 100 µM (inactive) | > 100 µM (inactive) | > 100 | > 100 µM (inactive) | > 100 µM (inactive) | > 100 µM (inactive) | > 100 µM (inactive) | > 100 µM (inactive) | > 100 µM (inactive) | > 100 µM (inactive) | > 100 µM (inactive)
8 | CC(=O)c1cccc(NC(=O)C(=O)C(C(=O)c2ccccc2F)C2OC(=O)c3ccccc32)c1 (configuration not stated) | 65.3 µM (inactive) | 34.4 µM (inactive) | 34.3 µM (inactive) | 31.8 µM (inactive) | 30.9 µM (inactive) | – | 64 µM (inactive) | 34.6 µM (inactive) | 64.3 µM (inactive) | 43.4 µM (inactive) | 9.2 µM (inactive) | 30.2 | 39.7 µM (inactive) | 33.3 µM (inactive) | 18.6 µM (inactive) | 35.4 µM (inactive) | > 100 µM (inactive) | 73.5 µM (inactive) | 74.8 µM (inactive) | –
9 | CN(C)C(=S)SCC(N)=O | > 100 µM (inactive) | – | > 100 µM (inactive) | > 100 µM (inactive) | > 100 µM (inactive) | > 100 µM (inactive) | 65.2 µM (inactive) | > 100 µM (inactive) | > 100 µM (inactive) | > 100 µM (inactive) | > 100 µM (inactive) | > 100 | > 100 µM (inactive) | > 100 µM (inactive) | > 100 µM (inactive) | > 100 µM (inactive) | > 100 µM (inactive) | > 100 µM (inactive) | > 100 µM (inactive) | > 100 µM (inactive)
10 | CCOC(=O)c1nc2ccccc2n(CC)c1=O | > 100 µM (inactive) | > 100 µM (inactive) | > 100 µM (inactive) | > 100 µM (inactive) | 81.7 µM (inactive) | > 100 µM (inactive) | > 100 µM (inactive) | > 100 µM (inactive) | > 100 µM (inactive) | > 100 µM (inactive) | > 100 µM (inactive) | > 100 | > 100 µM (inactive) | > 100 µM (inactive) | > 100 µM (inactive) | > 100 µM (inactive) | > 100 µM (inactive) | > 100 µM (inactive) | > 100 µM (inactive) | –
11 | O=C1OC(c2ccc(O)cc2)(c2ccc(O)cc2)c2ccc(Cl)c3cccc1c23.O=C1OC(c2ccc(O)cc2)(c2ccc(O)cc2)c2cccc3c(Cl)ccc1c23 | 8.51 µM (inactive) | 23 µM (inactive) | 15.9 µM (inactive) | 14.4 µM (inactive) | 12.4 µM (inactive) | 11.5 µM (inactive) | 12.7 µM (inactive) | 10.1 µM (inactive) | 9.84 µM (inactive) | 0.075 µM (active) | 9.04 µM (inactive) | 10.8 | 8.11 µM (inactive) | 9.46 µM (inactive) | 1.03 µM (active) | 19.2 µM (inactive) | 13.6 µM (inactive) | 22.2 µM (inactive) | 12.5 µM (inactive) | –
